{"source": "ChEMBL document CHEMBL6103545", "about": "“Discovery of GS-2278, a Potent and Selective LPAR1 Antagonist for the Treatment of Idiopathic Pulmonary Fibrosis” (J Med Chem, 2025)", "key": {"[1]": {"biological_target": "Cytochrome P450 2D6 (Homo sapiens, UniProt P10635)", "sequence (P10635 whole entry)": "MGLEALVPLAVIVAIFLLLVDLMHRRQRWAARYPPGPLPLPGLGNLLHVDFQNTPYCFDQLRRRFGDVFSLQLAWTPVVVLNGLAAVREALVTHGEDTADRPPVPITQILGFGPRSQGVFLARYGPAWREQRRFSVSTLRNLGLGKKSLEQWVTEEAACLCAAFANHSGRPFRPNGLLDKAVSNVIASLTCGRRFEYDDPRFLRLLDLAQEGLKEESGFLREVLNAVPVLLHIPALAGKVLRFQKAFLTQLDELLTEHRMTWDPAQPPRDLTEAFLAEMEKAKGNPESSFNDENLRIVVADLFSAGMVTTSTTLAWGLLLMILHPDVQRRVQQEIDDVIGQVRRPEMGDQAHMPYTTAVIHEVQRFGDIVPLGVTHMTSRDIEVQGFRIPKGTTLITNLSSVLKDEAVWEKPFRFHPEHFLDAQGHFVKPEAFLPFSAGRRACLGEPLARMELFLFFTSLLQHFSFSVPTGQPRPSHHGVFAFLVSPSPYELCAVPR", "test": "Inhibition of CYP2D6 (unknown origin) using midazolam as substrate", "assay_type": "ADME"}, "[2]": {"biological_target": "Cytochrome P450 3A4 (Homo sapiens, UniProt P08684)", "sequence (P08684 whole entry)": "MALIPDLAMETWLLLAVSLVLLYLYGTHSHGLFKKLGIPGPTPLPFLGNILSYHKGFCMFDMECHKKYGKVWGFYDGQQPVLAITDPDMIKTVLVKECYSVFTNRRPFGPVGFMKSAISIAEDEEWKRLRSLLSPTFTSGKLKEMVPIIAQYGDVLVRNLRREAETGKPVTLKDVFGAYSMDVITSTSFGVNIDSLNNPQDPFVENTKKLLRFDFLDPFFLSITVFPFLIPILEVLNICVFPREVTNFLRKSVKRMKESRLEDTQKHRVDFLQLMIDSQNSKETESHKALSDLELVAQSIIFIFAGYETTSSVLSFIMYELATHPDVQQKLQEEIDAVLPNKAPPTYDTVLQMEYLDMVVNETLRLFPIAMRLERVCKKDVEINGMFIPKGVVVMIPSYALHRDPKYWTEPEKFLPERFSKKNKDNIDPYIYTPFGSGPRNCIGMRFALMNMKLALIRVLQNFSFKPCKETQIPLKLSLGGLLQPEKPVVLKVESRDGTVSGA", "test": "Inhibition of CYP3A4 (unknown origin) using testosterone as substrate", "assay_type": "ADME"}, "[3]": {"test": "Toxicity in Beagle dog CNS at 30 mg/kg/day, po measured after 7 days by radiotelemetry", "assay_type": "organism-based, Canis lupus familiaris", "conditions": "in vivo, 168 h, time 7 day"}, "[4]": {"test": "Toxicity in Beagle dog CNS at 30 mg/kg/day, po measured after 28 days by radiotelemetry", "assay_type": "organism-based, Canis lupus familiaris", "conditions": "in vivo, 672 h, time 28 day"}, "[5]": {"test": "Toxicity in telemetry implanted Beagle dog CNS at 30 mg/kg/day, po measured upto 24 hrs by radiotelemetry based electroencephalogram analysis", "assay_type": "organism-based, Canis lupus familiaris", "conditions": "in vivo"}, "[6]": {"test_system": "BCRP (human)", "test": "Apparent permeability from basolateral to apical side of human BCRP transfected MDCK cells measured after 20 min by LC/MS/MS analysis", "assay_type": "ADME, cell-based, Canis lupus familiaris", "conditions": "dog"}, "[7]": {"biological_target": "T1, Lysophosphatidic acid receptor 1 (Homo sapiens, UniProt Q92633)", "T1 sequence (Q92633 whole entry)": "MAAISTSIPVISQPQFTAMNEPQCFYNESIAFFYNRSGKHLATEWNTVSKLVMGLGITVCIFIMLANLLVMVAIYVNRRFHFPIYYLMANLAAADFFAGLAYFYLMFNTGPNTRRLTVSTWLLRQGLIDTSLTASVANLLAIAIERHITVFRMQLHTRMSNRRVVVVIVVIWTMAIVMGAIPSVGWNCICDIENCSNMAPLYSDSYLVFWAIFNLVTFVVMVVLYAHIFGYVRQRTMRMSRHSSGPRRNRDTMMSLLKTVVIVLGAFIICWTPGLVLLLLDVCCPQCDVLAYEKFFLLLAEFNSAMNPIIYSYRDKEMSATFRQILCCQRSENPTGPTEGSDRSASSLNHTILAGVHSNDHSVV", "test": "Antagonist activity at human LPA1 receptor expressed in HEK293 cells assessed as beta-arrestin2 effector recruitment incubated for 10 mins by BRET assay", "assay_type": "functional, cell-based"}, "[8]": {"biological_target": "Bile salt export pump (Homo sapiens, UniProt O95342)", "sequence (O95342 whole entry)": "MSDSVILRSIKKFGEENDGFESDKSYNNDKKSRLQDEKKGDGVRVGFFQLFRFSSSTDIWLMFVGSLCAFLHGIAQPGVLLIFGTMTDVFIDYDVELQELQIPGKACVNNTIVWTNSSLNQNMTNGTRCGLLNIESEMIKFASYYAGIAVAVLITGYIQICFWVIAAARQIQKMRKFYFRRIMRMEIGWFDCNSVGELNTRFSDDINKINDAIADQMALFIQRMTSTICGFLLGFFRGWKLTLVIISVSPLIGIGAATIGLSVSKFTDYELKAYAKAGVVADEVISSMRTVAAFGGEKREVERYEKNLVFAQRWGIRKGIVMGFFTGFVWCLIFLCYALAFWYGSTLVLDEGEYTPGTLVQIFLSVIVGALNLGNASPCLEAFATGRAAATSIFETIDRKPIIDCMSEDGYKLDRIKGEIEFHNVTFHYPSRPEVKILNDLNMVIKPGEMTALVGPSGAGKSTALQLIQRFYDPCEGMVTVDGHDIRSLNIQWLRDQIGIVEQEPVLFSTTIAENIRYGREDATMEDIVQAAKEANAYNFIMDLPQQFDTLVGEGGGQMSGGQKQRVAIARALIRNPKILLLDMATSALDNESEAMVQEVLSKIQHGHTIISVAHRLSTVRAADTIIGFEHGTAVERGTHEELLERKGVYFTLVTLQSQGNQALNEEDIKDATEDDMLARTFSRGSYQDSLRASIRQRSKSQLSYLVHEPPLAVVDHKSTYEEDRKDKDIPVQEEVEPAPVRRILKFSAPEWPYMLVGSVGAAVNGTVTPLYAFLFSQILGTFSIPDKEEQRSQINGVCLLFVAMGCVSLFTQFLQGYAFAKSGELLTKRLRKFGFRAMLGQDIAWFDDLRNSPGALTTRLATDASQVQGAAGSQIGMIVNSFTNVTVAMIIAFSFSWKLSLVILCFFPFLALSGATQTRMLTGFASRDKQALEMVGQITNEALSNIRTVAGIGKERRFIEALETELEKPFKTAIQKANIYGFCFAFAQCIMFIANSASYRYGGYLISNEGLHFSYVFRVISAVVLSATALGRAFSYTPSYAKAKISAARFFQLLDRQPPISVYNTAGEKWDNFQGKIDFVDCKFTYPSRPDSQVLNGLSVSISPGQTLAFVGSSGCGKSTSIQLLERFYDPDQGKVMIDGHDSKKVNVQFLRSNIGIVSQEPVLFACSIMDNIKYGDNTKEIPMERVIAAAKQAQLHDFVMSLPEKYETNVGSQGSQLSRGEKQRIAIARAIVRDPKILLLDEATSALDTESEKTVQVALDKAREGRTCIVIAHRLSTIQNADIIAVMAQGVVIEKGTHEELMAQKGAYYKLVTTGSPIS", "test": "Inhibition of BSEP in human hepatocyte by LC-MS analysis", "assay_type": "cell-based"}, "[9]": {"biological_target": "T1, Lysophosphatidic acid receptor 1", "test": "Antagonist activity at LPA1 receptor in serum starved human TWNT-4 cells assessed as nuclear translocation pre-incubated for 1 hr followed by LPA stimulation and measured after 30 min by MRTF-A assay", "assay_type": "cell-based"}, "[10]": {"biological_target": "T1, Lysophosphatidic acid receptor 1", "test": "Displacement of [3H]LPA from human LPA1 receptor overexpressed in CHO cell membrane assessed as inhibition constant incubated for 90 min by competitive radioligand binding assay", "assay_type": "cell membranes"}, "[11]": {"test": "Half-life in cynomolgus monkey at 5 mg/kg, po measured after 24 hrs by LC/MS/MS analysis", "assay_type": "ADME, organism-based, Macaca fascicularis", "conditions": "in vivo"}, "[12]": {"test": "Drug metabolism in Beagle dog hepatocyte assessed as (R)-1-(2,5-Difluoropyridin-3-yl)ethyl[4-(5-Aminopyridin-2-yl)-1-methyl-1H-1,2,3-triazol-5-yl]carbamate Hydrochloride metabolite formation at 1 uM by LC/MS/MS analysis", "assay_type": "ADME, Canis lupus familiaris", "conditions": "hepatocytes"}, "[13]": {"biological_target": "Cytochrome P450 3A (Homo sapiens, UniProt P08684+P20815+Q9HB55+P24462)", "test": "Inhibition of CYP3A (unknown origin) using midazolam as substrate", "assay_type": "ADME, protein assay"}, "[14]": {"test": "Drug metabolism in female CD-1 mouse assessed as (R)-1-(2,5-Difluoropyridin-3-yl)ethyl (4-(5-Acetamidopyridin-2-yl)-1-methyl-1H-1,2,3-triazol-5-yl)carbamate metabolite formation at 1 uM by LC/MS/MS analysis", "assay_type": "ADME"}, "[15]": {"test": "Metabolic stability in male Sprague-Dawley rat liver microsomes assessed as intrinsic clearance at 1 uM by LC/MS/MS analysis", "assay_type": "ADME, Microsome", "conditions": "read-out: CLH (converted)"}, "[16]": {"test": "AUC (0 to 24 hrs) in male Sprague-Dawley rat at 5 mg/kg, po measured after 24 hrs by LC/MS/MS analysis", "assay_type": "ADME, organism-based", "conditions": "in vivo"}, "[17]": {"biological_target": "T2, Cytochrome P450 2C8 (Homo sapiens, UniProt P10632)", "T2 sequence (P10632 whole entry)": "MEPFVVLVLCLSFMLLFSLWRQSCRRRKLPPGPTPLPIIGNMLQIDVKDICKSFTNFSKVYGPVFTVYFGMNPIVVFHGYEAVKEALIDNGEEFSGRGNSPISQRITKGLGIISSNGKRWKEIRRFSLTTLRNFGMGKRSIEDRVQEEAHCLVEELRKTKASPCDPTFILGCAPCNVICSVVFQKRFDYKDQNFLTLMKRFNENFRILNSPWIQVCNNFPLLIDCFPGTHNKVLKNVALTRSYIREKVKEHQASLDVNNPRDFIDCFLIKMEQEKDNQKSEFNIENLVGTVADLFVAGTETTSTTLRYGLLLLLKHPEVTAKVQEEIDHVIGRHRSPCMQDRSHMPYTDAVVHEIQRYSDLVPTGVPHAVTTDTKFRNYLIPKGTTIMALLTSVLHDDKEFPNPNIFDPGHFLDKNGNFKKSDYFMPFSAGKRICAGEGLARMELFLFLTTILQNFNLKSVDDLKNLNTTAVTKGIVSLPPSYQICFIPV", "test": "Inhibition of CYP2C8 (unknown origin) using midazolam as substrate", "assay_type": "ADME"}}, "data": [{"smiles": "C[C@@H](OC(=O)Nc1c(-c2ccc(NC(=O)c3cnc(C(F)(F)F)nc3)cn2)nnn1C)c1cc(F)cnc1F", "values": [{"measurement": "inhibition (INH)", "setting": "[1]", "result": "Not_active"}, {"measurement": "inhibition (INH)", "setting": "[2]", "result": "Time-dependent-effect"}, {"measurement": "Activity", "setting": "[3]", "result": "Non-toxic"}, {"measurement": "Activity", "setting": "[4]", "result": "Non-toxic"}, {"measurement": "Activity", "setting": "[5]", "result": "Non-toxic"}, {"measurement": "Papp B→A at 20 min", "setting": "[6]", "result": 12, "unit": "×10⁻⁶ cm/s"}, {"measurement": "EC50", "setting": "[7]", "result": 134, "unit": "nM"}, {"measurement": "IC50", "setting": "[8]", "result": 22000, "unit": "nM"}, {"measurement": "EC50", "setting": "[9]", "result": 12, "unit": "nM"}, {"measurement": "Ki", "setting": "[10]", "result": 60, "unit": "nM"}, {"measurement": "half-life", "setting": "[11]", "result": 3.9, "unit": "h"}, {"measurement": "Drug metabolism", "setting": "[12]", "result": "metabolite_detected"}, {"measurement": "inhibition (INH)", "setting": "[13]", "result": "Not_active"}, {"measurement": "Drug metabolism", "setting": "[14]", "result": "metabolite_detected"}, {"measurement": "CLint scaled at 1 µM", "setting": "[15]", "result": 16.3, "unit": "mL/min/kg"}, {"measurement": "AUC(0-t) at 24 h", "setting": "[16]", "result": 5.1, "unit": "µM·h"}, {"measurement": "inhibition (INH)", "setting": "[17]", "result": "Not_active"}]}]}
